Source: patent US9089565B2, “Compositions and methods for causing neurite outgrowth” (MEDICAL RESEARCH COUNCIL, priority 2009, dated 2015)
* marks the point of attachment. Myristoyl = CCCCCCCCCCCCCC(=O)*

T1: NgR1 (Homo sapiens, UniProt Q9BZR6, S281D)
T1 construct: The cDNAs of NgR1 (NM 023004, Nt. 184-1543); expressed in transfected cells; host or cells: COS7
T1 sequence (Q9BZR6 27-447 S281D): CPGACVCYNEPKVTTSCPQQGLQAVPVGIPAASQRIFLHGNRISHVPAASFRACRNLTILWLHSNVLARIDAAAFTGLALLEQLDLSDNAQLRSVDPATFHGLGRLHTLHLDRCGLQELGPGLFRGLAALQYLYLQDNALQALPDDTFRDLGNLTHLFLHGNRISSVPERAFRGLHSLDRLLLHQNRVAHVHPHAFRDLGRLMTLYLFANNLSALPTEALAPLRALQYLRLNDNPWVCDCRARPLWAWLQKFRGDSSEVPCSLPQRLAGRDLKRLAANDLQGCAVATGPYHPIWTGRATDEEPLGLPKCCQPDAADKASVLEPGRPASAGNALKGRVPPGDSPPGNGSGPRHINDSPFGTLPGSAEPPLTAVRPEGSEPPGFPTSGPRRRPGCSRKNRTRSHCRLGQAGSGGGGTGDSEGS


Tests used:
NgR1 [1] = test: Phosphorylation of endogenous NgR1 (upper band, immunoblotting) in RA-treated SH-SY5Y cells; type: cell-based, human; settings: incubated with BDNF in the presence of kinase inhibitor, 24 hours
Description: FIG. 1. BDNF promotes neurite outgrowth of RA-treated SH-SY5Y, and induces phosphorylation of NgR1. (A) SH-SY5Y cells were incubated with indicated reagents. Cell images were taken with phase contrast microscopy. (B) Number of cells extending neurite-like structures of more than 40 μm and total cell number were counted from images taken in (A). More than 300 cells were examined in each sample. The proportion of cells extending neurite-like structures of more than 40 μm was indicated as a percentage of total cell number. An average of three experiments is shown. Error bars indicate S. E. between experiments. Data were analysed with student's t test. (C) Whole cell extracts were prepared from RA-treated SH-SY5Y cells after incubation with or without BDNF for 24 hours, and were analysed by SDS-PAGE. Immunoblotting was performed with the indicated antibodies. (D) Whole cell extract prepared from cells treated with both RA and BDNF was incubated with the indicated reagents for 1 hour at 37° C. Immunoblotting was performed with anti-NgR1 antibody. (E) RA-treated SH-SY5Y cells were incubated with BDNF in the presence or absence of one of the following: PKC inhibitor—500 nM Gö6983 or Gö6976; PKA inhibitor—2 μM KT5720 or a PKA inhibitor peptide 14-22; or either 500 nM or 1 μM of a casein kinase inhibitor, for 24 hours. Whole cell extracts prepared from these cells were analysed by SDS-PAGE. Immunoblotting was performed with anti-NgR1 antibody.
SH-SY5Y cells were cultured in Ham's F12 medium with 10% foetal bovine serum at 37° C. in 5% CO2 and 95% air. Passage numbers between 15 and 21 were used in experiments described in this paper. Further passages induce spontaneous differentiation and cells tend to extend neurites without BDNF (data not shown). For RA treatment, the cells are seeded (20,000 cells/well) on collagen IV coated 4 well chamber slides. After 24 hours culture, medium was changed to Ham's F12 medium containing 10 μM RA and 10% foetal bovine serum. Medium was changed to fresh medium on day 3 and cells were used for experiments after 5 days culture. Encinas et al. (18) reported that RA-treated SH-SY5Y cells initiate apoptosis after withdrawal of serum only when the cells are cultured at low density. The cell density used in this paper was higher than that in the paper by Encinas et al. (18) and cell death due to depletion of serum or BDNF was not significant. In this paper, the SH-SY5Y cells treated with RA for 5 days are called RA-treated SH-SY5Y. For BDNF treatment, the RA-treated SH-SY5Y cells were washed with serum-free Ham's F12 medium and incubated with 25 ng/ml BDNF in serum-free Ham's F12 medium for 24 hours. As a control (RA alone), the RA-treated SH-SY5Y cells were incubated with serum-free Ham's F12 alone for 24 hours.
Cells were scraped off from dishes and washed with PBS twice, and then resuspended in PBS containing 0.1% Triton X100 and phosphatase inhibitor cocktail (Roche) and EDTA-free protease inhibitor cocktail (Roche). After incubation for 15 min on ice, samples were centrifuged at 14,000×g for 20 min at 4° C. The supernatants containing 30 μg of proteins were analysed by SDS-PAGE and blotted to PVDF membrane. The PVDF membrane was incubated in blocking buffer (5% skimmed milk, 0.4% Triton X-100 in PBS) for 1 hour, first antibody diluted in the blocking buffer and appropriate secondary antibody labelled with horse radish peroxidase. Bound antibodies were visualised with ECL or ECL Plus kit (GE healthcare).

NgR1 [2] = biological target: T1, NgR1; test: Binding of MAG to COS7 cells over-expressing NgR1; settings: 281S/D mutant NgR1
Description: (§1) FIG. 3. CK2 phosphorylates NgR1, and inhibits binding of the myelin-associated proteins to NgR1. (A) Myc-tagged wild type, 281S/A or 281S/D mutant NgR1 were over-expressed in COS7 cells. The over-expressed cells were incubated with either the combination of ATP and CK2, or NEP1-40 for 30 min at 37° C. After washing with PBS, cells were incubated with Hisx6-tagged Nogo-GFP for 3 hours at 4° C. The cells were fixed and immunofluorescence was performed with anti-Myc and anti-GFP antibodies. (B) COS7 cells over-expressing Myc-tagged wild type NgR1 were treated as described in (A). Proteins were extracted and the Myc-tagged NgR1 was immunoprecipitated with anti-Myc antibody. Co-precipitated Hisx6-tagged Nogo-GFP was detected by anti-GFP antibody. […] The biotinylated proteins were fractionated and analysed by SDS-PAGE. Biotinylated NgR1-Myc was detected with anti-Myc. antibody. […] Myc-tagged proteins were immunoprecipitated and analysed with SDS-PAGE. […]
(§2) After treatment with or without CK2, COS7 cells over-expressing wild type or mutant NgR were incubated with Hisx6 tagged Nogo-GFP (10 μg/ml), HA-MAG (50 μg/ml) or Hisx6 tagged OMgp (10 μg/ml) in PBS for 3 hours at 4° C. […] Biotinylated proteins were precipitated with streptavidin beads and were analysed by SDS-PAGE. Each sample fractionated from 5×10^6 cells was analysed by SDS-PAGE.

NgR1 [3] = biological target: T1, NgR1; test: Binding of OMgp to COS7 cells over-expressing NgR1; settings: 281S/D mutant NgR1
Description: as §1, §2

Row | Molecule | level of the upper band of NgR1 (NgR1 [1]) | other results
1 | PKA inhibitor peptide: myristoylated PKA inhibitor peptide 14-22 amide, purchased from Merck (Myristoyl-SGRTGRRNA-NH2; SMILES CCCCCCCCCCCCCC(=O)N[C@@H](CO)C(=O)NCC(=O)N[C@@H](CCCNC(=N)N)C(=O)N[C@H](C(=O)NCC(=O)N[C@@H](CCCNC(=N)N)C(=O)N[C@@H](CCCNC(=N)N)C(=O)N[C@@H](CC(N)=O)C(=O)N[C@@H](C)C(N)=O)[C@@H](C)O; UniProt P61925 14-22, looked up, fragment) | Neither PKC inhibitors Gö6983 and Gö6976, nor PKA inhibitors KT 5720 and a PKA inhibitor peptide, show effects | –
2 | Cn1c2ccccc2c2c3c(c4c5ccccc5n(CCC#N)c4c21)CNC3=O [Gö6976] | Neither PKC inhibitors Gö6983 and Gö6976, nor PKA inhibitors KT 5720 and a PKA inhibitor peptide, show effects | –
3 | CCCCCCOC(=O)[C@]1(O)C[C@@H]2O[C@@]1(C)n1c3ccccc3c3c4c(c5c6ccccc6n2c5c31)C(=O)NC4 [KT 5720] | Neither PKC inhibitors Gö6983 and Gö6976, nor PKA inhibitors KT 5720 and a PKA inhibitor peptide, show effects | –
4 | COc1ccc2c(c1)c(C1=C(c3c[nH]c4ccccc34)C(=O)NC1=O)cn2CCCN(C)C [Gö6983] | Neither PKC inhibitors Gö6983 and Gö6976, nor PKA inhibitors KT 5720 and a PKA inhibitor peptide, show effects | –
5 | Brc1c(Br)c(Br)c2[nH]nnc2c1Br [CK2 inhibitor, 4,5,6,7-Tetrabromo-2-azabenzimidazole] | decreased the upper band | –
6 | MAG: human myelin-associated glycoprotein, HA-tagged, purified from COS7 conditioned medium (protein) GHWGAWMPSSISAFEGTCVSIPCRFDFPDELRPAVVHGVWYFNSPYPKNYPPVVFKSRTQVVHESFQGRSRLLGDLGLRNCTLLLSNVSPELGGKYYFRGDLGGYNQYTFSEHSVLDIVNTPNIVVPPEVVAGTEVEVSCMVPDNCPELRPELSWLGHEGLGEPAVLGRLREDEGTWVQVSLLHFVPTREANGHRLGCQASFPNTTLQFEGYASMDVKYPPVIVEMNSSVEAIEGSHVSLLCGADSNPPPLLTWMRDGTVLREAVAESLLLELEEVTPAEDGVYACLAENAYGQDNRTVGLSVMYAPWKPTVNGTMVAVEGETVSILCSTQSNPDPILTIFKEKQILSTVIYESELQLELPAVSPEDDGEYWCVAENQYGQRATAFNLSVEFAPVLLLESHCAAARDTVQCLCVVKSNPEPSVAFELPSRNVTVNESEREFVYSERSGLVLTSILTLRGQAQAPPRVICTARNLYGAKSLELPFQG | – | binding of ligand to cells (NgR1 [2]): Neither OMgp nor MAG bound
7 | OMgp: oligodendrocyte myelin glycoprotein, His-tagged, purchased from R&D (protein, UniProt P23515 25-417, looked up, His tag, oligodendrocyte myelin glycoprotein, His-tagged, purchased from R&D) Oligodendrocyte-myelin …: ICPLQCICTERHRHVDCSGRNLSTLPSGLQENIIHLNLSYNHFTDLHNQLTQYTNLRTLDISNNRLESLPAHLPRSLWNMSAANNNIKLLDKSDTAYQWNLKYLDVSKNMLEKVVLIKNTLRSLEVLNLSSNKLWTVPTNMPSKLHIVDLSNNSLTQILPGTLINLTNLTHLYLHNNKFTFIPDQSFDQLFQLQEITLYNNRWSCDHKQNITYLLKWMMETKAHVIGTPCSTQISSLKEHNMYPTPSGFTSSLFTVSGMQTVDTINSLSVVTQPKVTKIPKQYRTKETTFGATLSKDTTFTSTDKAFVPYPEDTSTETINSHEAAAATLTIHLQDGMVTNTSLTSSTKSSPTPMTLSITSGMPNNFSEMPQQSTTLNLWREETTTNVKTPLPS | – | binding of ligand to cells (NgR1 [3]): Neither OMgp nor MAG bound
